Like-named read-outs stand apart in the source and are kept apart here.
Columns and labels:
[1] = system: JAK2/Tyk2; test: IL-12 T cell phospho-STAT4; assay type: cell-based, human; conditions: for EC50: Homo sapiens, T-cell, read-out: IL-12 T cell phospho-STAT4 EC50; for inhibition of JAK2/Tyk2-dependent phosphorylation of Stat4 in response to IL-12: human primary T-cells
Experimental: (§1) The activity of Compound III and Compound I was assessed in a panel of cell-based assays. Compound III and Compound I are selective inhibitors of JAK1/3-dependent signaling. Data for a non-selective JAK inhibitor (Compound IV) is shown for reference. Mixed lymphocyte reactions (MLRs) were performed by incubating freshly prepared naive human peripheral blood lymphocytes from one donor with CD80+/CD86+ mature Dendritic Cells derived from a different donor for 5 days. The percentage of CD3+/CD71+ (anti-CD3-APC, Clone HIT3a, anti-CD 71-FITC, Clone M-A712; BD Biosciences, San Jose, Calif.) proliferating cells was assessed by fluorescence-activated cell sorting (FACS; BD Bioscience). Interleukin-2 (IL-2)-dependent human primary T cell proliferation was assessed using CellTiter-Glo® Luminescent Cell Viability Assay (Promega, Madison, Wis.). STAT phosphorylation induced by different cytokines in human primary T cells was measured by intracellular FACS analysis (anti-pY694-STAT5 AlexaFluor488, anti-pY701-STAT1 AlexaFluor488, and anti-pY693-STAT4 AlexaFluor488; BD Biosciences). STAT phosphorylation induced by different cytokines was performed in whole blood after red blood cell lysis (Lyse/Fix buffer, BD Biosciences) and methanol permeabilization. Interferon-γ (IFN-γ) signaling was assessed in the U937 monocytic cell line by measuring ICAM-1 surface expression by FACS (ICAM-1-APC, BD Bioscience).

[2] = system: JAK1/Tyk2; test: IFN-γ whole blood lymphocytes phospho-STAT1; assay type: cell-based; conditions: Lymphocyte, read-out: IFN-γ whole blood lymphocytes phospho-STAT1 EC50
Experimental: as §1, with “STAT phosphorylation induced by different cytokines was performed in whole blood after red blood cell lysis (Lyse/Fix buffer, BD Biosciences) and methanol permeabilization.” left out

[3] = In vivo pharmacokinetics, plasma levels by LC/MS/MS; set-up: species or system Lewis rats; conditions: for time of peak plasma level after administration: male Lewis rats
Experimental: Male Lewis rats were orally administered at dosages of Compound I HD (60 mg/kg/BID); Compound I LD (15 mg/kg/BID); Compound III HD (20 mg/kg/BID), and Compound III LD (5 mg/kg/BID), respectively. Plasma levels of drugs were quantified 0.5, 1, 1.5, 2, 3, 4, 6, 8, and 10 hours after administration. Plasma levels of Compound I and Compound III were quantified by LC/MS/MS.
Pharmacokinetics were performed in male Lewis rats. Plasma levels were measured within a 10 hour period. Resulting plasma concentrations of Compound I HD (60 mg/kg BID), Compound I LD (15 mg/kg BID), Compound III HD (20 mg/kg BID), and Compound III LD (5 mg/kg BID) are depicted in FIG. 1. Compound I HD and Compound I LD plasma levels peaked 1.5-2 hours after administration. Compound III HD plasma levels peaked after 3-3.5 hours and Compound III LD levels 2 hours after administration.

[4] = system: H1299 lung carcinoma cells; test: H1299 proliferation; assay type: cell-based; conditions: Homo sapiens
Experimental: (§2) The erythropoietin (EPO)-dependent survival of cultured human erythroid progenitor cells (CHEPs) was determined using CellTiter-Glo® Luminescent Cell Viability Assay (Promega). Human primary T cell activation was assessed by measuring IL-2 production by ELISA (R&D Systems, Minneapolis, Minn., USA) following plate-bound anti-CD3 and anti-CD28 stimulation (Anti-Human CD3; BD Biosciences; Anti-Human CD28; Immunotech; Prague, Czech Republic). The enzymatic activity of tryptase released by human cultured mast cells (CHMCs) upon stimulation with IgE was quantified by cleavage of the synthetic fluorescent peptide substrate Z-Ala-Lys-Arg-7-amino-4-methylcoumarin (MP Biomedicals, Solon, Ohio, USA) in tryptase buffer. B-cell receptor-dependent Erk phosphorylation was measured in Ramos cells by intracellular FACS (anti-pT202/pY204-ERK1/2-AlexaFluor488; BD Biosciences). Cell proliferation assays were performed using A549 epithelial cells and H1299 lung carcinoma cells using nuclear staining to measure cell numbers (4′6-diamidino-2-phenylindole, dihydrochloride (DAPI; Invitrogen, Darmstadt, Germany)).

[5] = system: Syk, Lck, ZAP-70, VEGFR, INSR, EGFR and serine threonine kinases; test: Panel of cell-based assays against non-JAK kinase targets
Experimental: as §2, with “Cell proliferation assays were performed using A549 epithelial cells and H1299 lung carcinoma cells using nuclear staining to measure cell numbers (4′6-diamidino-2-phenylindole, dihydrochloride (DAPI; Invitrogen, Darmstadt, Germany)).” left out
Growth factor-dependent protein phosphorylation was detected in HeLa cells by staining permeabilized cells with phospho-specific antibodies and quantified by chemiluminescence (Luminator, Wallac Multilabel Counter; Perkin Elmer). […] Human umbilical vein endothelial cells (HUVECs) were stimulated with VEGF and VEGFR2 phosphorylation was assessed by ELISA (100 ng/ml VEGF165, R&D Systems; Rabbit anti-phospho-VEGFR2 mAb, Cell Signaling Technology). […]

[6] = system: human peripheral blood lymphocytes; test: Mixed lymphocyte reaction (MLR); assay type: cell-based
Experimental: as §1

[7] = system: JAK1/3; test: IL-2-dependent human primary T cell proliferation; assay type: cell-based
Experimental: as §1, with “STAT phosphorylation induced by different cytokines was performed in whole blood after red blood cell lysis (Lyse/Fix buffer, BD Biosciences) and methanol permeabilization.” left out

[8] = HD oral: Compound I 60 mg/kg BID, Compound III 20 mg/kg BID
[9] = LD oral: Compound I 15 mg/kg BID, Compound III 5 mg/kg BID
[10] = read-out: EC50, proliferative response of human primary T-cells in the mixed lymphocyte reaction

Structure (SMILES) | EC50 ([1]; upstream kinases JAK2/Tyk2) [nM] | inhibition of JAK2/Tyk2-dependent phosphorylation of Stat4 in response to IL-12 [1] | EC50 ([2]; whole blood, JAK1/Tyk2) [nM] | time of peak plasma level after administration [3, 8] [h] | time of peak plasma level after administration [3, 9] [h] | EC50 ([4]; NCI-H1299, upstream kinases Multiple, read-out: H1299 proliferation EC50) [nM] | inhibition of other (non-JAK) kinase targets in cells [5] | EC50 ([6]; 120 h, 5 days, CD3+/CD71+ proliferating cells by FACS, read-out: MLR EC50) [nM] | EC50 [6, 10] [nM] | EC50 ([7]; upstream kinases JAK1/3, read-out: IL-2 T cell proliferation EC50) [nM] | EC50 [1] [nM] | EC50 [2] [nM] | AUC of HD group relative to LD group ([3]; Compound I 60 vs 15 mg/kg BID, Compound III 20 vs 5 mg/kg BID, 10 hour period) [fold] | EC50 ([4]; NCI-H1299, read-out: H1299 proliferation EC50) [nM] | EC50 ([6]; 120 h, read-out: MLR EC50) [nM] | EC50 ([7]; read-out: IL-2 T cell proliferation EC50) [nM]
COc1cc(Nc2ncc(C)c(Nc3ccc4oc(=O)[nH]c4c3)n2)cc(C)c1F [Compound I, 5-(2-(4-fluoro-3-methoxy-5-methylphenylamino)-5-methylpyrimidin-4-ylamino)benzo[d]oxazol-2(3H)-one] | 463 | only weakly inhibited | 153 ± 33 | 1.5 to 2 | 1.5 to 2 | 3430 ± 1310 | very limited inhibition | 16 ± 7 | 16 | 21 ± 7 | – | – | – | – | – | –
COc1cc(Nc2ncc(C)c(Nc3ccc4oc(=O)[nH]c4c3)n2)cc(C)c1C [Compound III, 5-(2-(3-methoxy-4,5-dimethylphenylamino)-5-methylpyrimidin-4-ylamino)benzol[d]oxazol-2-(3H)-one] | – | only weakly inhibited | – | 3 to 3.5 | 2 | – | very limited inhibition | – | 22 | – | 1560 ± 971 | 511 ± 279 | > 22 | 5080 ± 1820 | 22 ± 6 | 30 ± 13

— US8637038B2, “Methods for inhibiting allograft rejection” (Rigel Pharmaceuticals, Inc., priority 2011, dated 2014)
